Test results published in patent publication US20080194696A1 (priority 2006, published 2008).
Read-outs that look alike come from different tables or passages of the source.

Experiments:
Type in all cases: biochemical
[1] = biological target: T1, norepinephrine (NE) transport (Rattus norvegicus, UniProt Q63380); assay: Inhibition of [3H]NE uptake in rat hypothalamus synaptosomes; conditions: for inhibition at 0.5 µM: read-out: Uptake Inhibition % at 500 nM NE; for Uptake Inhibition % at 500 nM NE: 500 nM test compound, rat hypothalamus synaptosomes, [3H]NE, 20 min at 37° C.
T1 construct: synaptosomal preparations were made from either whole brain (5-HT), striatum (DA) or hypothalamus (NE); from tissue; host or cells: rat hypothalamus synaptosomes
Description: (§1) The effects of arylbicyclo[3.1.0]hexylamines of the invention for inhibiting transport of norepinephrine (NE) and/or dopamine (DA) and/or serotonin (5-HT) were evaluated using preparations of synaptosomes from different regions of the rat brain according to previously-reported techniques.
(§2) Whole brains were obtained from normal rats, and synaptosomal preparations were made from either whole brain (5-HT), striatum (DA) or hypothalamus (NE) by gentle disruption in 10 volumes (w/v) of 0.32 M sucrose (0-4° C.) using a Teflon-glass homogenizer. The homogenate was then centrifuged at 1000×g for 10 min. The supernatant was retained and centrifuged at 23000 g for 20 min. The resulting pellet was gently resuspended in 200 volumes of 0.32 M sucrose (0-4° C.) using a teflon-glass homogenizer. Aliquots (250 μL) of this preparation were added to tubes, along with 0.2 μCi/mL of [^3H]5-HT, [^3H]DA, or [^3H]NE, 200 μL of selected 1-arylbicyclo[3.1.0]hexanamine test compounds (to yield final concentrations of 500 nM) and 1 mL of Krebs-Ringer bicarbonate buffer (pH 7.4). […] At the end of this period, the assay was terminated by rapid filtration over Whatman GF/C glass fiber filters. The filters were rinsed 3 times with 4 ml of Krebs-Ringer bicarbonate buffer (0-4° C.), and the radioactivity retained on the filters was measured by liquid scintillation spectrometry.

[2] = biological target: T2, serotonin (5-HT) transport (Rattus norvegicus, UniProt P31652); assay: Inhibition of [3H]5-HT uptake in rat whole brain synaptosomes; conditions: for inhibition at 0.5 µM: read-out: Uptake Inhibition % at 500 nM 5-HT; for Uptake Inhibition % at 500 nM 5-HT: 500 nM test compound, rat whole brain synaptosomes, [3H]5-HT, 15 min at 37° C.
Description: as §1, §2

[3] = biological target: T3, dopamine (DA) transport (Rattus norvegicus, UniProt P23977); assay: Inhibition of [3H]DA uptake in rat striatum synaptosomes; set-up: synaptosomal preparations were made from either whole brain (5-HT), striatum (DA) or hypothalamus (NE); from tissue; host or cells: rat striatum synaptosomes; conditions: for inhibition at 0.5 µM: read-out: Uptake Inhibition % at 500 nM DA; for Uptake Inhibition % at 500 nM DA: 500 nM test compound, 15 min at 37° C.
Description: as §1
as §2, with “([…])” for “(to yield final concentrations of 500 nM)”
Target sequence in this assay (P23977 whole entry): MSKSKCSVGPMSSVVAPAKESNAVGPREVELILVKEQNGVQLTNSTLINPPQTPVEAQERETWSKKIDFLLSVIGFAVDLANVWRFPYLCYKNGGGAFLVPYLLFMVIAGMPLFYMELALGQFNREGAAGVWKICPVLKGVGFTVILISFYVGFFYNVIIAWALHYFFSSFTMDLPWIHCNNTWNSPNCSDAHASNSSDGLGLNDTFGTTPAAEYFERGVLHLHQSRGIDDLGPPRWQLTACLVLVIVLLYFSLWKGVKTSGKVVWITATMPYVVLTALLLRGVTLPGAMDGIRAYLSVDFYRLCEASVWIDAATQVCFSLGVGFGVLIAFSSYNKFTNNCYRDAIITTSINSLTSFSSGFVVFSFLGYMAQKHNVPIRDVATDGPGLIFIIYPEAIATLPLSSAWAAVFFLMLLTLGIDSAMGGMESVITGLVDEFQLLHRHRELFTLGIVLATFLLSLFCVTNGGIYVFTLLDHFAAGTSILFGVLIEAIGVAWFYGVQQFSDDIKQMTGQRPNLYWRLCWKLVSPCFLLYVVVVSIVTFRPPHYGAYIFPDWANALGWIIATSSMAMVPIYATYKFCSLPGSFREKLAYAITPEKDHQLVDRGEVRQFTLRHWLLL

[4] = biological target: T1, norepinephrine (NE) transport; assay: Inhibition of [3H]NE uptake in rat hypothalamus synaptosomes
[5] = biological target: T2, serotonin (5-HT) transport; assay: Inhibition of [3H]5-HT uptake in rat whole brain synaptosomes
[6] = biological target: T3, dopamine (DA) transport; assay: Inhibition of [3H]DA uptake in rat striatum synaptosomes
Description: as §1
as §2, with “([…])” for “(to yield final concentrations of 500 nM)”
Target sequence in this assay (P23977 whole entry, looked up): as the sequence (P23977 whole entry) above

[7] = rat striatum synaptosomes, [3H]DA, read-out: Uptake IC50 (nM) DA
[8] = rat striatum synaptosomes, [3H]DA

T2 sequence (P31652 whole entry): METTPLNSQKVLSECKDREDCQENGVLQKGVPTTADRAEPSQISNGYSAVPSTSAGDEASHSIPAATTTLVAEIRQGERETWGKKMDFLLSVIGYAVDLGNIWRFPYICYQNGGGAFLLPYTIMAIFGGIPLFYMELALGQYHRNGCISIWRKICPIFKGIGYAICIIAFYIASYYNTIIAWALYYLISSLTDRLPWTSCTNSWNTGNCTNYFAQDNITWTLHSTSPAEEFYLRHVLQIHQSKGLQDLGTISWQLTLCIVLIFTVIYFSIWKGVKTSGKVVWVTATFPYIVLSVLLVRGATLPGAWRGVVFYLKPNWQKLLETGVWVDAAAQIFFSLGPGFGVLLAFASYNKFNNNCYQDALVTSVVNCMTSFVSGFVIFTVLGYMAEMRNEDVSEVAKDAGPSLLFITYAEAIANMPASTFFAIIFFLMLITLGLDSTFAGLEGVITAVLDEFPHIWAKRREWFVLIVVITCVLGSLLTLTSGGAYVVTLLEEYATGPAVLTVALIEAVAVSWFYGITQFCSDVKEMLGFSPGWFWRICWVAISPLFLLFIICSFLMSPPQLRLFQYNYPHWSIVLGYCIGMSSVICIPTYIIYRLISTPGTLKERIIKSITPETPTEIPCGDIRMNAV
T1 sequence (Q63380 1-617): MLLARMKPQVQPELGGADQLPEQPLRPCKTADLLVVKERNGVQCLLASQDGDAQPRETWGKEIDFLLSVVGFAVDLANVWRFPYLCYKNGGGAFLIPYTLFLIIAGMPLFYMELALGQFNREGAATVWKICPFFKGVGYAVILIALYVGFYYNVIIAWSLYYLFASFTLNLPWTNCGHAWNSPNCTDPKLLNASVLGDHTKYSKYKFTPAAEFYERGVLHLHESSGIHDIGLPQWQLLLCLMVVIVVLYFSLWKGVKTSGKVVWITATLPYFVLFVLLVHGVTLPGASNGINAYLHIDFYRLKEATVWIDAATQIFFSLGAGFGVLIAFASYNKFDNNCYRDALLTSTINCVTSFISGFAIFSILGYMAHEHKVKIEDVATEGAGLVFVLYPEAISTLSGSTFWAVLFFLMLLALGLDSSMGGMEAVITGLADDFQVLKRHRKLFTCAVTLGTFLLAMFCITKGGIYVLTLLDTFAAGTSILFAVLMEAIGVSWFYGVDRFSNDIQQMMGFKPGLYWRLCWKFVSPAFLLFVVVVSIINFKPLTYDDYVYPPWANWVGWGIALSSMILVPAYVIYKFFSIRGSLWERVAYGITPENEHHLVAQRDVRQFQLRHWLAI

| Compound | inhibition at 0.5 µM [1] [%] | inhibition at 0.5 µM [2] [%] | inhibition at 0.5 µM [3] [%] | further results |
| --- | --- | --- | --- | --- |
| NC1C[C@@H]2C[C@]2(c2ccc(Cl)c(Cl)c2)C1 (stereo partly shown) | 59 | 75 | 83 |  |
| NC1C[C@H]2C[C@@]2(c2cccc3ccccc23)C1 (stereo partly shown) | 76 | 65 | 53 | IC50 [4]: 282 nM; IC50 [5]: 425 nM; IC50 [3, 7]: 496 nM |
| Cc1ccc(C23CCC(N)C2C3)cc1 (stereo not shown) | 50 | 25 | 31 |  |
| CNC1CCC2(c3ccc(C)cc3)CC12 (stereo not shown) | 89 | 37 | 63 | IC50 [1]: 313 nM; IC50 [2]: 1190 nM; IC50 [3]: 858 nM |
| Cc1ccc(C23CCC(N(C)C)C2C3)cc1 (stereo not shown) | 57 | 44 | 55 |  |
| CNC1CCC2(c3ccc(Cl)c(Cl)c3)CC12 (stereo not shown) | 63 | 94 | 56 | IC50 [1]: 444 nM; IC50 [2]: 75 nM; IC50 [3]: 360 nM |
| CN(C)C1CCC2(c3ccc(Cl)c(Cl)c3)CC12 (stereo not shown) | 29 | 95 | 34 |  |
| CNC1CCC2(c3cccc4ccccc34)CC12 (stereo not shown) | 49 | 90 | 29 |  |
| CN(C)C1CCC2(c3cccc4ccccc34)CC12 (stereo not shown) | 25 | 76 | 15 |  |
| CNC1CCC2(c3ccc4ccccc4c3)CC12 (stereo not shown) | 47 | 90 | 45 |  |
| CN(C)C1CCC2(c3ccc4ccccc4c3)CC12 (stereo not shown) | 26 | 96 | 42 |  |
| NC1C[C@H]2C[C@@]2(c2ccc(Cl)c(Cl)c2)C1 (stereo partly shown) |  |  |  | IC50 [6]: 60 nM |
| 5-p-tolylbicyclo[3.1.0]hexan-2-amine |  |  |  | Uptake Inhibition % at 500 nM NE [1]: 42%; Uptake Inhibition % at 500 nM 5-HT [2]: 74%; Uptake Inhibition % at 500 nM DA [3, 8]: 39% |
| CN(C)C1CCC2CC21c1ccc(Cl)c(Cl)c1 (stereo not shown) [1-(3,4-dichlorophenyl)-N,N-dimethylbicyclo[3.1.0]hexan-2-amine] | 96 | 38 | 99 | IC50 [1]: 11 nM; IC50 [2]: 1240 nM; IC50 [3]: 9 nM |
| CNC1CCC2CC21c1ccc(Cl)c(Cl)c1 (stereo not shown) [1-(3,4-dichlorophenyl)-N-methylbicyclo[3.1.0]hexan-2-amine] | 94 | 15 | 101 | IC50 [1]: 18 nM; IC50 [5]: 3680 nM; IC50 [3]: 3 nM |
| NC1CCC2CC12c1ccc(Cl)c(Cl)c1 (stereo not shown) [1-(3,4-dichlorophenyl)bicyclo[3.1.0]hexan-2-amine] | 34 | 5 | 86 |  |
| NC1CC2CC2(c2ccc(Cl)c(Cl)c2)C1 (stereo not shown) [1-(3,4-dichlorophenyl)bicyclo[3.1.0]hexan-3-amine] | 76 | 89 | 77 | IC50 [4]: 126 nM; IC50 [5]: 38 nM; IC50 [3, 7]: 111 nM |
| Cc1ccc(C23CC2CCC3N)cc1 (stereo not shown) [1-p-tolylbicyclo[3.1.0]hexan-2-amine] | 14 | 20 | 18 |  |
| Cc1ccc(C23CC(N)CC2C3)cc1 (stereo not shown) [1-p-tolylbicyclo[3.1.0]hexan-3-amine] | 38 | 21 | 44 |  |
| Cc1ccc(C23CC2CCC3N(C)C)cc1 (stereo not shown) [N,N-dimethyl-1-p-tolylbicyclo[3.1.0]hexan-2-amine] | 71 | 0 | 70 | IC50 [1]: 2090 nM; IC50 [2]: > 5000 nM; IC50 [3]: 335 nM |
| Cc1ccc(C23CC(N(C)C)CC2C3)cc1 (stereo not shown) [N,N-dimethyl-1-p-tolylbicyclo[3.1.0]hexan-3-amine] | 50 | 66 | 0 |  |
| CNC1CCC2CC21c1ccc(C)cc1 (stereo not shown) [N-methyl-1-p-tolylbicyclo[3.1.0]hexan-2-amine] | 8 | 4 | 33 |  |
| CNC1CC2CC2(c2ccc(C)cc2)C1 (stereo not shown) [N-methyl-1-p-tolylbicyclo[3.1.0]hexan-3-amine] | 73 | 69 | 43 |  |
| N-methyl-5-p-tolylbicyclo[3.1.0]hexan-2-amine |  |  |  | Uptake Inhibition % at 500 nM NE [1]: 81%; Uptake Inhibition % at 500 nM 5-HT [2]: 82%; IC50 [4]: 74 nM; IC50 [5]: 76 nM; Uptake Inhibition % at 500 nM DA [3, 8]: 23%; IC50 [3, 7]: 8730 nM |
